Data: patent US6384041B1, “Bicyclic sPLA2 inhibitors” (Eli Lilly and Company, priority 1998, dated 2002)
Like-named read-outs stand apart in the source and are kept apart here.

Target: T1, recombinant human secreted phospholipase A2 (Homo sapiens, UniProt P14555)
T1 sequence (P14555 21-144): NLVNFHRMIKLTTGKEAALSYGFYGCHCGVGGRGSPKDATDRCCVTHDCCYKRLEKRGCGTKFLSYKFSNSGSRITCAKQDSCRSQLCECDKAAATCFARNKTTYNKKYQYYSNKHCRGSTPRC
Experiment: Human Recombinant hnp-sPLA2 Chromogenic Assay
Type: biochemical
Excerpt: The following chromogenic assay procedure was used to identify and evaluate inhibitors of recombinant human secreted phospholipase A2.The assay described herein has been adapted for high volume screening using 96 well microtiter plates. A general description of this assay method is found in the article, “Analysis of Human Synovial Fluid Phospholipase A2 on Short Chain Phosphatidylcholine-Mixed Micelles: Development of a Spectrophotometric Assay Suitable for a Microtiterplate Reader”, by Laure J. Reynolds, Lori L. Hughes, and Edward A Dennis, Analytical Biochemistry, 204, pp. 190-197, 1992 (the disclosure of which is incorporated herein by reference): Reagents:
Bovine Serum Albumin (fatty acid free) (1 g/L)
(Sigma A-7030, product of Sigma Chemical Co. St. Louis Mo., USA) […]
pH 7.5 (adjust with NaOH)
Adjust pH to 4.5 with acetic acid
DTNB—5,5′-dithiobis-2-nitrobenzoic acid
Racemic Diheptanoyl Thio-PC racemic 1,2-bis(heptanoylthio)-1,2-dideoxy-sn-glycero-3-phosphorylcholine TRITON X-100™ prepare at 6.249 mg/ml in reaction buffer to equal […].
A measured volume of racemic dipheptanoyl thio PC supplied in chloroform at a concentration of 100 mg/ml is taken to dryness and redissolved in 10 millimolar TRITON X-100™ nonionic detergent aqueous solution.
Reaction Buffer is added to the solution, then DTNB to give the Reaction Mixture.
The reaction mixture thus obtained contains lmM diheptanoly thio-PC substrate, 0.29 mm Triton X-100™ detergent, and 0.12 mm DTMB in a buffered aqueous solution at pH 7.5.
1. Add 0.2 ml reaction mixture to all wells;
2. Add 10 ul test compound (or solvent blank) to appropriate wells, mix 20 seconds;
3. Add 50 nanograms of sPLA2 (10 microliters) to appropriate wells;
4. Incubate plate at 40° C. for 30 minutes;
5. Read absorbance of wells at 405 nanometers with an automatic plate reader.
All compounds were tested in triplicate. Typically, compounds were tested at a final concentration of 5 ug/ml. […] Lack of color development at 405 nanometers evidenced inhibition. Compounds initially found to be active were reassayed to confirm their activity and, if sufficiently active, IC50 values were determined. […] In all cases, % inhibition measured at 405 nanometers generated by enzyme reactions containing inhibitors relative to the uninhibited control reactions was determined. Each sample was titrated in triplicate and result values were averaged for plotting and calculation of IC50 values. IC50 were determined by plotting log concentration versus inhibition values in the range from 10-90% inhibition.

[1] = chromogenic assay, diheptanoyl thio-PC substrate, pH 7.5, 40° C. for 30 minutes, absorbance at 405 nm, average of n = 3-4, read-out: IC50 (micro-molar) n = 3 − 4 (ave)

Question: CCc1c(C(=O)C(N)=O)c2c(OCC(=O)O)nc(SC)nc2n1Cc1ccccc1 [—H|—SCH3|phenyl, [[2-(methylthio)-5-(aminooxoacetyl)-6-ethyl-7-(phenylmethyl)-7H-pyrrolo[2,3-d]pyrimidin-4-yl]oxy]acetic acid] was tested. Which IC50 did it give?
Answer: 19 nM

Question: For CCc1c(C(=O)C(N)=O)c2c(OCC(=O)O)nc(SC)nc2n1Cc1cccc(Cl)c1 [—H|—S-methyl|m-Cl-phenyl, [[2-(methylthio)-5-(aminooxoacetyl)-6-ethyl-7-[(3-chlorophenyl)methyl]-7H-pyrrolo[2,3-d]pyrimidin-4-yl]oxy]acetic acid], which IC50 is on record?
Answer: 19 nM

Question: CCc1c(C(=O)C(N)=O)c2c(OCC(=O)OC)nc(C)nc2n1Cc1ccccc1 [—CH3|—CH3|phenyl, [[2-methyl-5-(aminooxoacetyl)-6-ethyl-7-(phenylmethyl)-7H-pyrrolo[2,3-d]pyrimidin-4-yl]oxy]acetic acid methyl ester] was tested. Which IC50 [1] did it give?
Answer: 4650 nM

Question: Which IC50 [1] does the source give for CCc1c(C(=O)C(N)=O)c2c(OCC(=O)O)ncnc2n1Cc1ccccc1-c1ccccc1 [—H|—H|o-phenyl-phenyl, [[5-(aminooxoacetyl)-6-ethyl-7-([1,1′-biphenyl]-2-ylmethyl)-7H-pyrrolo[2,3-d]pyrimidin-4-yl]oxy]acetic acid] here?
Answer: 114 nM

Question: Which IC50 does the source give for CCc1c(C(=O)C(N)=O)c2c(OCC(=O)O)nc(Sc3ccccc3)nc2n1Cc1ccccc1 [—H|—S-phenyl|phenyl, [[2-(phenylthio)-5-(aminooxoacetyl)-6-ethyl-7-(phenylmethyl)-7H-pyrrolo[2,3-d]pyrimidin-4-yl]oxy]acetic acid] here?
Answer: 11 nM

Question: Which IC50 does the source give for CCc1c(C(=O)C(N)=O)c2c(OCC(=O)O)nc(SC)nc2n1Cc1ccccc1-c1ccccc1 [—H|—S-methyl|o-phenyl-phenyl, [[2-(methylthio)-5-(aminooxoacetyl)-6-ethyl-7-([1,1′-biphenyl]-2-ylmethyl)-7H-pyrrolo[2,3-d]pyrimidin-4-yl]oxy]acetic acid] here?
Answer: 9 nM

Question: How did the IC50 [1] turn out when CCc1c(C(=O)C(N)=O)c2c(OCC(=O)OC)ncnc2n1Cc1ccccc1 [—CH3|—H|phenyl, [[5-(aminooxoacetyl)-6-ethyl-7-(phenylmethyl)-7H-pyrrolo[2,3-d]pyrimidin-4-yl]oxy]acetic acid methyl ester] was run?
Answer: 5460 nM

Question: For CCc1c(C(=O)C(N)=O)c2c(OCC(=O)O)ncnc2n1Cc1cccc(C(F)(F)F)c1 [—H|—H|m-CF3-phenyl, [[5-(aminooxoacetyl)-6-ethyl-7-[[3-(trifluoromethyl)phenyl]methyl]-7H-pyrrolo[2,3-d]pyrimidin-4-yl]oxy]acetic acid], which IC50 [1] is on record?
Answer: 124 nM

Question: Which IC50 does the source give for CCc1c(C(=O)C(N)=O)c2c(OCC(=O)O)nc(OC)nc2n1Cc1ccccc1 [—H|—O—CH3|phenyl, [[2-methoxy-5-(aminooxoacetyl)-6-ethyl-7-(phenylmethyl)-7H-pyrrolo[2,3-d]pyrimidin-4-yl]oxy]acetic acid] here?
Answer: 46 nM

Question: For CCc1c(C(=O)C(N)=O)c2c(OCC(=O)O)nc(SC)nc2n1Cc1cccc(F)c1 [—H|—S-methyl|m-F-phenyl, [[2-(methylthio)-5-(aminooxoacetyl)-6-ethyl-7-[(3-fluorophenyl)methyl]-7H-pyrrolo[2,3-d]pyrimidin-4-yl]oxy]acetic acid], which IC50 is on record?
Answer: 16 nM

Question: Which IC50 does the source give for CCc1c(C(=O)C(N)=O)c2c(OCC(=O)O)ncnc2n1Cc1cccc(F)c1 [—H|—H|m-F-phenyl, [[5-(aminooxoacetyl)-6-ethyl-7-[(3-fluorophenyl)methyl]-7H-pyrrolo[2,3-d]pyrimidin-4-yl]oxy]acetic acid] here?
Answer: 98 nM

Question: With CCc1c(C(=O)C(N)=O)c2c(OCC(=O)O)nc(SC)nc2n1Cc1cccc(C(F)(F)F)c1 [—H|—S-methyl|m-CF3-phenyl, [[2-(methylthio)-5-(aminooxoacetyl)-6-ethyl-7-[[3-(trifluoromethyl)phenyl]methyl]-7H-pyrrolo[2,3-d]pyrimidin-4-yl]oxy]acetic acid] as the compound, how does the IC50 read?
Answer: 13 nM

Question: Which IC50 does the source give for CCc1c(C(=O)C(N)=O)c2c(OCC(=O)O)ncnc2n1Cc1ccccc1 [—H|—H|phenyl, [[5-(aminooxoacetyl)-6-ethyl-7-(phenylmethyl)-7H-pyrrolo[2,3-d]pyrimidin-4-yl]oxy]acetic acid] here?
Answer: 48 nM

Question: Which IC50 does the source give for CCc1c(C(=O)C(N)=O)c2c(OCC(=O)O)nc(C)nc2n1Cc1ccccc1 [—H|—CH3|phenyl, [[2-methyl-5-(aminooxoacetyl)-6-ethyl-7-(phenylmethyl)-7H-pyrrolo[2,3-d]pyrimidin-4-yl]oxy]acetic Acid] here?
Answer: 88 nM

Question: For CCc1c(C(=O)C(N)=O)c2c(OCC(=O)O)ncnc2n1Cc1cccc(Cl)c1 [—H|—H|m-Cl-phenyl, [[5-(aminooxoacetyl)-6-ethyl-7-[(3-chlorophenyl)methyl]-7H-pyrrolo[2,3-d]pyrimidin-4-yl]oxy]acetic acid], which IC50 is on record?
Answer: 91 nM
